Assay results from US20200239398A1, “METHYLENE-CYCLOALKYLACETATE DERIVATIVES AND THEIR USE IN TREATMENT OF NEUROTROPIC CONDITIONS” (Yissum Research Development Company of The Hebrew …, priority 2018, published 2020).

Columns and labels:
[1] = tested on: PC12 cells; assay: PC12 cell neurotropic assay (neurite outgrowth); type: cell-based, rat; conditions: 10 μM; for Neurotropic effect (mean ± SE) Seven Days Df / Neurotropic effect (mean ± SE) Two Days Df: PC12 cells, Df = fractal dimension of neurite outgrowth; for Neurotropic effect (mean ± SE) Seven Days Df: seven days of treatment; for Neurotropic effect (mean ± SE) Two Days Df: two days of treatment; for Neurotropic effect Seven Days NGF (%) / Neurotropic effect Two Days NGF (%): relative to NGF 50 ng/ml; for inducing fast neurite outgrowth (in words): after two days of treatment
Experimental: PC12 cells were grown in T-200 flasks in high glucose (4.5 gr/L) DMEM medium supplemented with 7% FCS, 7% horse serum and 1% penicillin and streptomycin. Cells were incubated at 37° C. in a humidified incubator containing 6% CO2. All experiments were carried out in a clean room, according to ISO7 requirements (10,000 particles/m^3).
Tissue culture Falcon plates were coated with 200 μg/ml collagen type 1 and placed under UV light for 30 minutes for sterilization. Thereafter, one ml of PC12 cell suspension (5000 cells/well) was applied in 12 or 24 well plate, respectively. The cultures were grown in the incubator two days before exposure to investigated compound.
This experimental procedure contained two controls. The first consisted of untreated cells (negative control), representing the random effect: “noise signal”—the ability of cells to spontaneously grow neurite outgrowth which in seven days are of a length less than two-fold cell diameter. Also, negative controls consisted of cultures treated with 1% DMSO, solvent used to solubilize all compounds. The positive control consisted of cells treated with 50 ng/ml NGF, indicating maximal neurite outgrowth that can be achieved in this model. The experimental group consisted of PC12 cells treated with synthetic compounds. In each experiment, after two and seven days, six cultures were evaluated for neurotropic effect. These consecutive observations allow measurement of the progress of neurite outgrowth elongation and the percentage of cells with neurites.^31
In order to assess neurotropic effect, the neurite outgrowth length in each culture was quantified. For this purpose, each culture was placed under an inverted microscope and photographed by the attached camera. Each well was photographed at three to five representative areas. After acquiring the photos, they were analyzed by ImageJ, NIH software. The neurite outgrowth was estimated by fractal dimension (Df), a statistical parameter that describes the fractional space (area and length) filled by neurite outgrowth. Df ranged from 0 to 1.20. This method estimates the amount of picsel covered by neurites/cells compared to empty space per square field, and therefore plotting log (number of square boxes) vs. log (size in pixels) relationship generates a linear curve with Df representing the slope of the curve. Every photograph that was taken, was opened in a Photoshop software and a new layer was generated on it. Using a 5-pixel wide digital pencil tool, all the outgrowths were marked and the layer with the markers (outgrowth network) was saved in a 0-255 gray scale as described in FIG. 2. Then, the saved layer was opened by ImageJ NIH software. The software “skeletonized” the layer, measured the length and complexity of every outgrowth in a fractal box count and calculated the fractional dimension parameter (Df).^32
Each experiment was performed in duplicates and repeated three to four times (n=6-8). By using SPSS software, one way ANOVA was performed for the fractional dimension of each compound, in order to evaluate the neurotropic effect. In case of significance, Bonferroni post-hoc analysis was performed. The results were considered significant when p<0.05.

[2] = tested on: PC12 cells; assay: Cytotoxicity (cell morphology, LDH release); type: cell-based; conditions: 10 μM
[3] = biological target: T1, N-methyl-D-aspartate (NMDA) Glutamate Receptor 1A/2B (NMDAR (1A/2B)) (Homo sapiens, UniProt Q05586+Q13224); assay: SAFETYscan NMDAR (1A/2B) Ion channel; type: cell-based; conditions: Blocker mode; reference compound; read-out: RC50 (the source's name)
T1 construct: DiscoverX (SAFETYscan contract panel)

[4] = biological target: T2, Nicotinic acetylcholine Receptor-alpha-4 beta-2 (nAChR (a4/b2)) (Homo sapiens, UniProt P17787+P43681); assay: cell-based; type: cell-based; conditions: Blocker mode; reference compound; read-out: RC50 (the source's name)
T2 construct: DiscoverX (SAFETYscan contract panel)

[5] = biological target: Gamma-aminobutyric acid Receptor A (GABAA); type: cell-based; conditions: Blocker mode; reference compound; read-out: RC50 (the source's name)
[6] = tested on: PC12 cells; assay: Additive neurotropic effect between HU-MCA-13 and NGF, PC12 neurite outgrowth; type: cell-based, rat
Experimental: PC12 cells were cultured in T-200 flasks in high glucose (4.5 gr/L) DMEM medium supplemented with 7% FCS, 7% horse serum and 1% penicillin and streptomycin. Cells will be maintained at 37° C. in a humidified incubator containing 6% CO2. All experiments were carried out in a GLP clean room, according to ISO 7 requirements (10,000 particles/m^3). For neurotropic experiments, tissue culture Falcon plates were coated with 200 μg/ml collagen type 1 and placed under UV light for 30 minutes for sterilization. Thereafter, one ml of PC12 cell suspension (5000 cells/well) was applied in 12 or 24 well plate, respectively. The cultures were maintained in the incubator two days before exposure to investigated compound. Each neurotropic experiment contained two controls. The first consisted of untreated cells (negative control), representing the random effect: “noise signal”—the ability of cells to spontaneously grow neurite outgrowth which in seven days are of a length less than two-fold cell diameter. Also, negative controls consisted of cultures treated with 1% DMSO, solvent used to solubilize HU-MCA-13. The positive controls represented neuronal cultures treated with 50 ng/ml NGF, indicating maximal neurite outgrowth that can be achieved in this model. The experimental group consisted of PC12 cells treated with 10 μM HU-MCA-13. In each experiment, after two and seven days, six cultures will be evaluated for neurotropic effect. These consecutive observations allow measurement of the progress of neurite outgrowth elongation and the percentage of cells with neurites (Katzir et al. A quantitative bioassay for nerve growth factor, using PC12 clones expressing different levels of trkA receptors. J Mol Neurosci. 2002; 18(3):251-64). In order to assess neurotropic effect, the neurite outgrowth length in each culture was quantified. For this purpose, each culture was placed under an inverted microscope and photographed by the attached camera. Each well was photographed at three to five representative areas. After acquiring the photos, they were analyzed by ImageJ, NIH software. The neurite outgrowth was estimated by fractal dimension (Df), a statistical parameter that describes the fractional space (area and length) filled by neurite outgrowth. Df ranged from 0 to 1.20. This method estimated the amount of picsels covered by neurites/cells compared to empty space per square field, and therefore plotting log(number of square boxes) vs. log(size in pixels) relationship generated a linear curve with Df representing the slope of the curve. Every photograph that was taken, was opened in a Photoshop software and a new layer was generated on it. Using a 5-pixel wide digital pencil tool, all the outgrowths were marked and the layer with the markers (outgrowth network) were saved in a 0-255 gray scale. Thereafter, the saved layer was opened by ImageJ NIH software.
Using an established PC12 neurotropic in vitro assay, the regenerative enhancing effect of HU-MCA-13 when applied concomitantly, together with NGF, a known neurotrophin was investigated. […] NGF alone, as positive control, at the conventional dose of 50 ng/ml enhanced neurite outgrowth to a Df value of 0.54 at 2 days and 0.4 at 7 days of treatment (FIG. 5). To verify a possible additive effect, the cultures with a mixture of low dose NGF (1 ng/ml generating 10% neurite outgrowth=Df of 0.05) and 1 μM HU-MCA-13 generating about 10-15% neurite outgrowth=Df of 0.04) were tested and found after 2 days a Df of 0.85 and after 7 days a Df of 0.38. NGF is released by hematopoietic cells during polyneuropathy inflammatory process, this finding further strength the possibility of a potential enhancement regenerative effect of this drug upon in vivo therapy.

[7] = tested on: dorsal root ganglion (DRG) sensory neurons; assay: Neurite outgrowth in dorsal root ganglion (DRG) explants; type: cell-based, mice
Experimental: To perform these experiments, about 10 dorsal root ganglia (DRGs) were excised under sterile conditions and transferred to 0.25% Type IV collagenase (Sigma-Aldrich-Merck) in Dulbecco's Modified Eagle Medium (DMEM) at 37° C. for 45 min, followed by a 20-min incubation with 0.025% trypsin in DMEM, to digest the associated connective tissue surrounding the neurons. After plating the ganglia onto collagen (50 μg/ml)/laminin mixture (5 μg/ml)-coated tissue culture wells for 24 h, DRG neurons were cultured for additional 1-7 days in fresh Neurobasal A/B27 containing either 50 ng/ml NGF (positive control), blank medium (DMSO 1%) control and HU-MCA-13. The cultures were photographed; thereafter the ganglia were immune-stained for neuronal tubulin and again photographed using a fluorescent microscope. Image analysis was performed by a researcher blinded to the experimental conditions. Neurite outgrowth distance measured in micrometers, was quantified as for PC12 cultures.

[8] = NGF 50 ng/ml, DRG explants, 5 days

T2 sequence (P43681 29-627 limits assumed): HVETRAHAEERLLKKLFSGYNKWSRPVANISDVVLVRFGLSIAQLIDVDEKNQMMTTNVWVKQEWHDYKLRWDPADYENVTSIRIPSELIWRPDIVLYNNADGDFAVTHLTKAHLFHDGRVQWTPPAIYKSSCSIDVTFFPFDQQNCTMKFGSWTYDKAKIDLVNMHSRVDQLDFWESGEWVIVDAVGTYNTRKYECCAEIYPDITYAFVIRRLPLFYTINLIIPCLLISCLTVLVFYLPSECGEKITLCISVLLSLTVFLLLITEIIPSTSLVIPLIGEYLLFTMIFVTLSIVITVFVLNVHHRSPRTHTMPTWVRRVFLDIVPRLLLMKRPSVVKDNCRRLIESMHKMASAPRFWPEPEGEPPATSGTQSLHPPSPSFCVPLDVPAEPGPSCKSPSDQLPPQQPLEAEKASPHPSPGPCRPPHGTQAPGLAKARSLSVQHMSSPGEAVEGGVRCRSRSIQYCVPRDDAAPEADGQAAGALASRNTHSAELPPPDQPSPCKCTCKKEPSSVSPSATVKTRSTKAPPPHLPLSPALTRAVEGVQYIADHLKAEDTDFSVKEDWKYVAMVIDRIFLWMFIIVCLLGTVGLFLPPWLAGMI
T2 sequence (P17787 26-502): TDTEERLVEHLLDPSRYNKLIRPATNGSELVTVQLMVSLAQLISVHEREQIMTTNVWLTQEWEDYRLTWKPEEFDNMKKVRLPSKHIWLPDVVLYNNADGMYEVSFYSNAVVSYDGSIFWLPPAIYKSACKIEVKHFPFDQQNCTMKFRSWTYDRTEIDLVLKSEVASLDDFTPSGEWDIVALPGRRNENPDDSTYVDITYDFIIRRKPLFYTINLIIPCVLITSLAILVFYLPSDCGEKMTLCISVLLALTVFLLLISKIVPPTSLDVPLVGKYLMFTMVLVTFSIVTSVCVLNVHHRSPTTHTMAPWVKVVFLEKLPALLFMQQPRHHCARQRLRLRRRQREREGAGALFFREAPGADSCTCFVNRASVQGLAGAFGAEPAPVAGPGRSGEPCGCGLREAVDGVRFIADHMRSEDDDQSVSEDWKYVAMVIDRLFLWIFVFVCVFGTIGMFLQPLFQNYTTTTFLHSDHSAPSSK
T1 sequence (Q13224 27-1484, other chains not shown): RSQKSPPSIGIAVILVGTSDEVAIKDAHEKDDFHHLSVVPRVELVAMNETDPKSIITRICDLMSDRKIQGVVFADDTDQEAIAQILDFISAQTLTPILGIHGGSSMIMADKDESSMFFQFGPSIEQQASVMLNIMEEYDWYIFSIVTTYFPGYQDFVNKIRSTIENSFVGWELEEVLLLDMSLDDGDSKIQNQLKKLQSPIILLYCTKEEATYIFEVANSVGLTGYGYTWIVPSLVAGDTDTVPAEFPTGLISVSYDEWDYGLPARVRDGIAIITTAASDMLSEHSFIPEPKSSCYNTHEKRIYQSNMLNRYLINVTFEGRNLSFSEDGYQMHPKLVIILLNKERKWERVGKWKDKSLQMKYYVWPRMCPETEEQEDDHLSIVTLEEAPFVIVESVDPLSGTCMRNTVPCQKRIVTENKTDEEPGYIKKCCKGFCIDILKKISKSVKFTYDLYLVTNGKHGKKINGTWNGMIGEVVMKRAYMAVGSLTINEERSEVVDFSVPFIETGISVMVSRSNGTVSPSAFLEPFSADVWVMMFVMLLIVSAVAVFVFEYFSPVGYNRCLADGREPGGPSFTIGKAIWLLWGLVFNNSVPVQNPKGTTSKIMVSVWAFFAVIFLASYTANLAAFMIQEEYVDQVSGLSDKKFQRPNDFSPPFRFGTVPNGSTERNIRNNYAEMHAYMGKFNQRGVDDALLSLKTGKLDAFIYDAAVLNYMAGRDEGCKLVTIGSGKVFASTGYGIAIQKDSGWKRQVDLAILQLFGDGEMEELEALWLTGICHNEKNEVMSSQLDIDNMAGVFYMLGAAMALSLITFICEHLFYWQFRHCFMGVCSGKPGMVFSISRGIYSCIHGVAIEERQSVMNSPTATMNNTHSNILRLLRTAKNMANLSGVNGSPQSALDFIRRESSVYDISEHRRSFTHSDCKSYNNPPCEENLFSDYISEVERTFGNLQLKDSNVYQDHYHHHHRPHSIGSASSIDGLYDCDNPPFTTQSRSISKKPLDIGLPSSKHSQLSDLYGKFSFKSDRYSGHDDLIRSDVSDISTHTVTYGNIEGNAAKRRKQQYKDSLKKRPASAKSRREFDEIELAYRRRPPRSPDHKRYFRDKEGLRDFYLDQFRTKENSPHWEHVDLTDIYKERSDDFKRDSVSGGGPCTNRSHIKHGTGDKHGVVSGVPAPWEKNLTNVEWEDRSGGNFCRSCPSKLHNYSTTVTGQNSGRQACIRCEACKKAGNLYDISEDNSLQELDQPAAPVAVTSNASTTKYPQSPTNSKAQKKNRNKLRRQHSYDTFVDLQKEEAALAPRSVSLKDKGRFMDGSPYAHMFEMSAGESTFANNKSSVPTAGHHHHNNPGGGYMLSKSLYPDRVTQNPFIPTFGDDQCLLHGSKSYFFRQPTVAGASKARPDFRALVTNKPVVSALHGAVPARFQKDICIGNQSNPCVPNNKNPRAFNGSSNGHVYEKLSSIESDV

C=C(C)CC1CCCC(CC(=O)OC)C1=C (centres unmarked) [Compound 5, Methyl 2-(3-(2-methylallyl)-2-methylenecyclohexyl)acetate]
loss of activity from day two to seven [1]: 50% | Neurotropic effect (mean ± SE) Seven Days Df [1]: 0.20 ± 0.17 | Neurotropic effect (mean ± SE) Two Days Df [1]: 0.42 ± 0.01 | Neurotropic effect Seven Days NGF (%) [1]: 43.5% | Neurotropic effect Two Days NGF (%) [1]: 91.3% | neurotropic activity (in words) ([1]; after seven days of treatment): significant neurotropic activity | inducing fast neurite outgrowth (in words) [1]: most active

C=C1C(CC=C(C)C)CCC[C@H]1CC(=O)O (some centres unmarked) [Compound 6]
Neurotropic effect (mean ± SE) Seven Days Df [1]: 0.20 ± 0.17 | Neurotropic effect (mean ± SE) Two Days Df [1]: 0.14 ± 0.15 | Neurotropic effect Seven Days NGF (%) [1]: 43.5% | Neurotropic effect Two Days NGF (%) [1]: 30.4% | neurotropic activity (in words) ([1]; after seven days of treatment): significant neurotropic activity | inducing fast neurite outgrowth (in words) [1]: most active

C=C1C(CC=C(C)C)CCCC1CC(=O)OC (centres unmarked) [Compound 7, Methyl 2-(3-(3-methylbut-2-en-1-yl)-2-methylenecyclohexyl)acetate]
Neurotropic effect (mean ± SE) Seven Days Df [1]: 0.20 ± 0.17 | Neurotropic effect (mean ± SE) Two Days Df [1]: 0.12 ± 0.14 | Neurotropic effect Seven Days NGF (%) [1]: 43.5% | Neurotropic effect Two Days NGF (%) [1]: 26.1% | neurotropic activity (in words) ([1]; after seven days of treatment): significant neurotropic activity | inducing fast neurite outgrowth (in words) [1]: most active

C=C1C(C/C=C/c2ccccc2)CCC[C@H]1CC(=O)O (some centres unmarked) [Compound 8]
cytotoxicity (in words) [2]: partial cytotoxic activity

C=CCC1CC(=C)C[C@@H](CC(=O)O)C1=C (some centres unmarked) [Compound 9]
Neurotropic effect (mean ± SE) Seven Days Df [1]: 0.01 ± 0.01 | Neurotropic effect Seven Days NGF (%) [1]: 2.2% | neurotropic activity (in words) ([1]; PC12 cell neurotropic assay): no activity was detected

C=CCC1CC(c2ccccc2)C[C@@H](CC(=O)O)C1=C (some centres unmarked) [Compound 10]
neurotropic activity (in words) ([1]; PC12 cell neurotropic assay): no activity was detected

C=CCC1CC(c2ccccc2)CC(CC(=O)OC)C1=C (centres unmarked) [Compound 11, Methyl 2-(3-allyl-2-methylene-5-phenylcyclohexyl)acetate]
Neurotropic effect (mean ± SE) Seven Days Df [1]: 0.01 ± 0.01 | Neurotropic effect Seven Days NGF (%) [1]: 2.2% | neurotropic activity (in words) ([1]; PC12 cell neurotropic assay): no activity was detected

C=CCC1CC(C(C)(C)C)C[C@@H](CC(=O)O)C1=C (some centres unmarked) [Compound 12]
Neurotropic effect (mean ± SE) Seven Days Df [1]: 0.17 ± 0.16 | Neurotropic effect Seven Days NGF (%) [1]: 37.0% | neurotropic activity (in words) ([1]; after seven days of treatment): significant neurotropic activity

C=CCC1CN(C(=O)OCC)CC(CC(=O)OC)C1=C (centres unmarked) [Compound 15, Ethyl-3-allyl-5-(2-methoxy-2-oxoethyl)-4-methylenepiperidine-1-carboxylate]
cytotoxicity (in words) [2]: partial cytotoxic activity

C=C(C)CC1CCCC(CC(=O)OC)C1=O (centres unmarked) [Compound 18, Methyl 2-(3-(2-methylallyl)-2-oxocyclohexyl)acetate]
cytotoxicity (in words) [2]: partial cytotoxic activity

COC(=O)CC1CCCC(CC=C(C)C)C1=O (centres unmarked) [Compound 21, Methyl 2-(3-(3-methylbut-2-en-1-yl)-2-oxocyclohexyl)acetate]
Neurotropic effect (mean ± SE) Seven Days Df [1]: 0.01 ± 0.01 | Neurotropic effect Seven Days NGF (%) [1]: 2.2%

C[C@]12N[C@H](Cc3ccccc31)c1ccccc12 [MK 801, reference compound]
IC50 [3]: 52.8 nM

Dihydro-AY-erythroidine [reference compound]
IC50 [4]: 707 nM

Picrotoxin [reference compound]
IC50 [5]: 5920 nM

B1: NGF: Tissue culture grade mouse β-NGF from Alomone Labs; positive control (protein, UniProt P01139 122-241, looked up)
Beta-nerve growth factor: SSTHPVFHMGEFSVCDSVSVWVGDKTTATDIKGKEVTVLAEVNINNSVFRQYFFETKCRASNPVESGCRGIDSKHWNSYCTTTHTFVKALTTDEKQAAWRFIRIDTACVCVLSRKATRRG
modifications: Beta-nerve growth factor
notes: Tissue culture grade mouse β-NGF from Alomone Labs; positive control
neurite outgrowth Df ([6]; NGF alone 50 ng/ml, 2 days): 0.54 | neurite outgrowth Df ([6]; NGF alone 50 ng/ml, 7 days): 0.4 | neurite outgrowth ([6]; low dose NGF 1 ng/ml): 10% | neurite outgrowth Df ([6]; low dose NGF 1 ng/ml): 0.05 | increase in neurite outgrowth ([7]; NGF 50 ng/ml vs blank control medium): 3-4 fold | neurite outgrowth length [7, 8]: 700 micrometer | ratio between the area covered by neurites and that covered by the DRG ganglia [7, 8]: 9
